Data taken from ChEMBL document CHEMBL3861976, “Phthalide Derivatives with Anticoagulation Activities from Angelica sinensis” (J Nat Prod, 2016).
The source made the active and inactive calls. The rule behind the calls is not given here.

Columns and labels:
Format in all cases: functional, cell-free
Oryctolagus cuniculus [1] = species on record: Oryctolagus cuniculus; test: Anticoagulant activity in New Zealand White rabbit plasma assessed as prolongation of thrombin time at 1 mM incubated for 3 mins followed by thrombin addition
Oryctolagus cuniculus [2] = species on record: Oryctolagus cuniculus; test: Anticoagulant activity in New Zealand White rabbit plasma assessed as decrease in fibrinogen level at 1 mM after 3 mins
Oryctolagus cuniculus [3] = species on record: Oryctolagus cuniculus; test: Anticoagulant activity in New Zealand White rabbit plasma assessed as prolongation of activated partial thromboplastin time at 1 mM after 1 min

With CCCCC(=O)[C@]12CC[C@H](C=C1C(=O)OC)[C@@H](CCC)[C@@]21OC(=O)C2=C[C@H]3CC[C@]21OO3 the Activity (Oryctolagus cuniculus [1]) was “Active”, the Activity (Oryctolagus cuniculus [2]) was “Active” and the Activity (Oryctolagus cuniculus [3]) was “Active”.

With CCC/C=C1\OC(=O)C2=C1CC[C@@H]1[C@@H]3CCC4=C(C(=O)OC45[C@H](CCC)[C@@H](CCC)[C@@]54OC(=O)C5=C4CCC=C5)[C@@H]3[C@H]21 (some centres undefined) the Activity (Oryctolagus cuniculus [2]) was “Active”.
